Measurements reported in patent US20240376091A1, “THIADIAZOLEAMIDE DERIVATIVES AND THEIR APPLICATIONS” (ZHEJIANG UNIVERSITY, priority 2021, published 2024).

Target: T1, AR (Homo sapiens, UniProt P10275, T878A)
T1 construct: into the androgen-dependent PCa cells (LNCaP); endogenous in cells; host or cells: LNCaP-ARR2PB-eGFP
T1 sequence (P10275 1-920 T878A): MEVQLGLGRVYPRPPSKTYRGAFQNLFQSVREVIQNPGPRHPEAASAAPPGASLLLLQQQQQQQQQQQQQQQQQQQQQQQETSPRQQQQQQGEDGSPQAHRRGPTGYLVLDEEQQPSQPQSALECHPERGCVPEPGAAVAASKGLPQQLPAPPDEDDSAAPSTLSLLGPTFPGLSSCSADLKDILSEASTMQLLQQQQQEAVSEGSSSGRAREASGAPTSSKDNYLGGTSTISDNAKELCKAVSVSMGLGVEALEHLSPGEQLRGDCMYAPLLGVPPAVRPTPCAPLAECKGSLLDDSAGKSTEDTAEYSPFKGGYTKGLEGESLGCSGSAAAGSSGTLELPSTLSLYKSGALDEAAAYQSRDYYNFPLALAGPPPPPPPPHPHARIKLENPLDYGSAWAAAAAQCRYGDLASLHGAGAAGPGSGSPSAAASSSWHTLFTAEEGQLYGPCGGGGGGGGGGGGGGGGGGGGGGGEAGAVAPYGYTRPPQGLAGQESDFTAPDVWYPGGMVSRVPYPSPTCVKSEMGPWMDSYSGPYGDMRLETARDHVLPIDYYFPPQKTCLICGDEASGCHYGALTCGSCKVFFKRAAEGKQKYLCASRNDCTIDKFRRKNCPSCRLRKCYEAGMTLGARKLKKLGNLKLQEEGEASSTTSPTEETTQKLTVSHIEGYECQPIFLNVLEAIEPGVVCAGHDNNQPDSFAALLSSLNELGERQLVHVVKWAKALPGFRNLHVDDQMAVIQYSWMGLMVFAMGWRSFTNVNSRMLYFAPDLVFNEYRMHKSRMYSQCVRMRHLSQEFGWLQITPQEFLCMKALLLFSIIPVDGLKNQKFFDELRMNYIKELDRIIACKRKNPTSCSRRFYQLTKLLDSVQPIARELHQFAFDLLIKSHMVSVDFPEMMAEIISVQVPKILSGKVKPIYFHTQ
Test: AR transcriptional activity, LNCaP-ARR2PB-eGFP reporter cells
Assay type: cell-based
Details: read-out: IC50 AR transcriptional activities
Description: Detection principles: We conducted a stable transfection of promoter ARR2PB known for its strong AR responsiveness, into the androgen-dependent PCa cells (LNCaP). The expression of enhanced green fluorescent protein (eGFP) is depending on the degree of activation of AR. Therefore, LNCaP-ARR2PB-eGFP cell line could quantitatively determine the AR antagonistic activities of the compounds by evaluating the expression of eGFP.

With `O=C(Nc1nc(CN2CCOCC2)ns1)c1coc(-c2cccc(OC(F)F)c2)c1` [Compound B-57, 5-(3-(Difluoromethoxy)phenyl)-N-(3-(morpholinomethyl)-1,2,4-thiadiazol-5-yl)furan-3-carboxamide] the IC50 was 23.5 µM.
Work on `Cc1sc(-c2cccc(C(F)(F)F)c2)cc1C(=O)Nc1nc(CC(C)N(C)C)ns1` (stereo not drawn) [Compound C-6, N-(3-(2-(dimethylamino)propyl)-1,2,4-thiadiazol-5-yl)-2-methyl-5-(3-(trifluoromethyl)phenyl)thiophene-3-carboxamide] yielded an IC50 of 33.2 µM.
`CC(=O)Cc1nsc(NC(=O)c2cc(-c3cccc(OC(F)F)c3)oc2C(F)(F)F)n1` [Compound E-5, 5-(3-(Difluoromethoxy)phenyl)-N-(3-(2-oxopropyl)-1,2,4-thiadiazol-5-yl)-2-(trifluoro-methyl)furan-3-carboxamide] was tested, and the IC50 was 1.48 µM.
With `CC(=O)Cc1nsc(NC(=O)c2csc(-c3cccc(C#N)c3)c2)n1` [Compound D-2, 5-(3-Cyanophenyl)-N-(3-(2-oxopropyl)-1,2,4-thiadiazol-5-yl)thiophene-3-carboxamide] the IC50 was 32.6 µM.
`Cc1oc(-c2cccc(C(F)(F)F)c2)cc1C(=O)Nc1nc(CN(C)C)ns1` [Compound A-106, N-(3-((dimethylamino)methyl)-1,2,4-thiadiazol-5-yl)-2-methyl-5-(3-(trifluoromethyl)phenyl)furan-3-carboxamide] was tested, and the IC50 was 1.67 µM.
Compound `CC(=O)Cc1nsc(NC(=O)c2cc(-c3cccc(O)c3)oc2C)n1` [Compound A-26, 5-(3-Hydroxyphenyl)-2-methyl-N-(3-(2-oxopropyl)-1,2,4-thiadiazol-5-yl)furan-3-carboxamide] has an IC50 of 3.21 µM.
Work on `CC(=O)Cc1nsc(NC(=O)c2csc(-c3cccc(OC(F)F)c3)c2)n1` [Compound D-5, 5-(3-(Difluoromethoxy)phenyl)-N-(3-(2-oxopropyl)-1,2,4-thiadiazol-5-yl)thiophene-3-carboxamide] yielded an IC50 of 40 µM.
Compound `Cc1oc(-c2cccc(OC(F)(F)F)c2)cc1C(=O)Nc1nc(CN2CCCC2)ns1` [Compound A-124, 2-Methyl-N-(3-(pyrrolidin-1-ylmethyl)-1,2,4-thiadiazol-5-yl)-5-(3-(trifluoromethoxy)phenyl)furan-3-carboxamide] has an IC50 of 0.04 µM.
In the case of `COc1cccc(-c2coc(C(=O)Nc3nc(CN4CCOCC4)ns3)c2)c1` [Compound G-26, 4-(3-Methoxyphenyl)-N-(3-(morpholinomethyl)-1,2,4-thiadiazol-5-yl)furan-2-carboxamide], the IC50 is reported as 27.1 µM.
`CC(Cc1nsc(NC(=O)c2csc(-c3cccc(C(F)(F)F)c3)c2)n1)=C(F)F` [Compound D-30, N-(3-(3,3-difluoro-2-methylallyl)-1,2,4-thiadiazol-5-yl)-5-(3-(trifluoromethyl)phenyl)thiophene-3-carboxamide] was tested, and the IC50 was 34.8 µM.
For `CC(O)(Cc1nsc(NC(=O)c2cc(-c3cccc(C(F)(F)F)c3)oc2C(F)(F)F)n1)C(F)(F)F` (stereo not drawn) [Compound E-17, N-(3-(3,3,3-trifluoro-2-hydroxy-2-methylpropyl)-1,2,4-thiadiazol-5-yl)-2-(trifluoromethyl)-5-(3-(trifluoromethyl)phenyl)furan-3-carboxamide], the IC50 was 0.79 µM.
For `Cc1oc(-c2cccc(C(F)(F)F)c2)cc1C(=O)Nc1nc(CC(C)(F)F)ns1` [Compound A-85, N-(3-(2,2-difluoropropyl)-1,2,4-thiadiazol-5-yl)-2-methyl-5-(3-(trifluoromethyl)phenyl) furan-3-carboxamide], the IC50 was 0.77 µM.
With `CCN(CC)Cc1nsc(NC(=O)c2cc(-c3cccc(OC(F)(F)F)c3)oc2C)n1` [Compound A-123, N-(3-((diethylamino)methyl)-1,2,4-thiadiazol-5-yl)-2-methyl-5-(3-(trifluoromethoxy)phenyl)furan-3-carboxamide] the IC50 was 0.59 µM.
With `CC(=O)Cc1nsc(NC(=O)c2cc(-c3cccc(NC(C)=O)c3)oc2C)n1` [Compound A-25, 5-(3-Acetamidophenyl)-2-methyl-N-(3-(2-oxopropyl)-1,2,4-thiadiazol-5-yl)furan-3-carboxamide] the IC50 was 13.6 µM.
Compound `Cc1oc(C(=O)Nc2nc(CC(C)N3CCOCC3)ns2)cc1-c1cccc(OC(F)(F)F)c1` (stereo not drawn) [Compound F-9, 5-Methyl-N-(3-(2-morpholinopropyl)-1,2,4-thiadiazol-5-yl)-4-(3-(trifluoromethoxy)phenyl)furan-2-carboxamide] has an IC50 of 23.5 µM.
Compound `COc1cccc(-c2cc(C(=O)Nc3nc(CC(C)N4CCCCC4)ns3)cs2)c1` [Compound D-14, 5-(3-Methoxyphenyl)-N-(3-(2-(piperidin-1-yl)propyl)-1,2,4-thiadiazol-5-yl)thiophene-3-carboxamide] has an IC50 of 37.2 µM.
For `CCN(CC)C(C)Cc1nsc(NC(=O)c2coc(-c3cccc(C(F)(F)F)c3)c2)n1` (stereo not drawn) [Compound B-7, N-(3-(2-(diethylamino)propyl)-1,2,4-thiadiazol-5-yl)-5-(3-(trifluoromethyl)phenyl)furan-3-carboxamide], the IC50 was 15 µM.
`CC(O)Cc1nsc(NC(=O)c2cc(-c3cccc(C(F)(F)F)c3)co2)n1` (stereo not drawn) [Compound G-11, N-(3-(2-hydroxypropyl)-1,2,4-thiadiazol-5-yl)-4-(3-(trifluoromethyl)phenyl)furan-2-carboxamide] showed an IC50 of 29.3 µM.
Compound `CC(=O)Cc1nsc(NC(=O)c2cc(-c3cccc(OC(F)(F)F)c3)co2)n1` [Compound G-4, N-(3-(2-oxopropyl)-1,2,4-thiadiazol-5-yl)-4-(3-(trifluoromethoxy)phenyl)furan-2-carboxamide] has an IC50 of 11.6 µM.
`CC(Cc1nsc(NC(=O)c2coc(-c3cccc(C(F)(F)F)c3)c2)n1)=C(F)F` [Compound B-30, N-(3-(3,3-difluoro-2-methylallyl)-1,2,4-thiadiazol-5-yl)-5-(3-(trifluoromethyl)phenyl) furan-3-carboxamide] gave an IC50 of 4.93 µM.
For `CC(=O)Cc1nsc(NC(=O)c2cc(-c3cccc(C#N)c3)oc2C)n1` [Compound A-3, 5-(3-Cyanophenyl)-2-methyl-N-(3-(2-oxopropyl)-1,2,4-thiadiazol-5-yl)furan-3-carboxamide], the IC50 was 0.32 µM.
`CN1CCN(Cc2nsc(NC(=O)c3cc(-c4cccc(C#N)c4)oc3C(F)(F)F)n2)CC1` [Compound E-38, 5-(3-Cyanophenyl)-N-(3-((4-methylpiperazin-1-yl)methyl)-1,2,4-thiadiazol-5-yl)-2-(trifluoromethyl)furan-3-carboxamide] showed an IC50 of 1.45 µM.
`COc1cccc(-c2coc(C(=O)Nc3nc(CC(C)N4CCOCC4)ns3)c2)c1` (stereo not drawn) [Compound G-8, 4-(3-Methoxyphenyl)-N-(3-(2-morpholinopropyl)-1,2,4-thiadiazol-5-yl)furan-2-carboxamide] was tested, and the IC50 was 19.2 µM.
Work on `CC(F)(F)Cc1nsc(NC(=O)c2cc(-c3cccc(C(F)(F)F)c3)oc2C(F)(F)F)n1` [Compound E-27, N-(3-(2,2-difluoropropyl)-1,2,4-thiadiazol-5-yl)-2-(trifluoromethyl)-5-(3-(trifluoromethyl)phenyl) fura n-3-carboxamide] yielded an IC50 of 0.95 µM.
`Cc1oc(-c2cccc(C#N)c2)cc1C(=O)Nc1nc(CC(C)N2CCCC2)ns1` (stereo not drawn) [Compound A-46, 5-(3-Cyanophenyl)-2-methyl-N-(3-(2-(pyrrolidin-1-yl)propyl)-1,2,4-thiadiazol-5-yl)furan-3-carboxamide] gave an IC50 of 0.41 µM.
Compound `N#Cc1cccc(-c2coc(C(=O)Nc3nc(CN4CCCCC4)ns3)c2)c1` [Compound G-25, 4-(3-Cyanophenyl)-N-(3-(piperidin-1-ylmethyl)-1,2,4-thiadiazol-5-yl)furan-2-carboxamide] has an IC50 of 19.8 µM.
`COC(C)Cc1nsc(NC(=O)c2cc(-c3cccc(C(F)(F)F)c3)oc2C)n1` (stereo not drawn) [Compound A-61, N-(3-(2-methoxypropyl)-1,2,4-thiadiazol-5-yl)-2-methyl-5-(3-(trifluoromethyl)phenyl)furan-3-carboxamide] showed an IC50 of 3.82 µM.
With `CO/N=C(\C)Cc1nsc(NC(=O)c2cc(-c3cccc(C(F)(F)F)c3)oc2C)n1` [Compound A-70, N-(3-(2-(methoxyimino)propyl)-1,2,4-thiadiazol-5-yl)-2-methyl-5-(3-(trifluoromethyl)phenyl)furan-3-carboxamide] the IC50 was 0.88 µM.
Compound `[2H]c1c(-c2cccc(C#N)c2)oc(C)c1C(=O)Nc1nc(CC(C)=O)ns1` [Compound A-35, 5-(3-Cyanophenyl)-2-methyl-N-(3-(2-oxopropyl)-1,2,4-thiadiazol-5-yl)furan-4-d-3-carboxamide] has an IC50 of 0.72 µM.
`CC(Cc1nsc(NC(=O)c2csc(-c3cccc(OC(F)(F)F)c3)c2)n1)N1CCOCC1` [Compound D-16, N-(3-(2-morpholinopropyl)-1,2,4-thiadiazol-5-yl)-5-(3-(trifluoromethoxy)phenyl)thiophene-3-carboxamide] showed an IC50 of 24.2 µM.
